Measured values reported in patent publication US8222260B2, “Substituted 6-anilinopurine derivatives as inhibitors of cytokinin oxidase/dehydrogenase and preparations containing these derivatives” (Univerzita Palackego V Olomouci, priority 2007, dated 2012).
“Also recorded” adds a separate entry of the source.

How the values were obtained:
[1] = tested on: Human diploid fibroblasts BJ; test: Attachment frequency test (adherence of fibroblasts); format: cell-based; conditions: 0-25 μM, attached cells counted after 6 hours, BJ passage 19
Method: Attachment frequency test is one of the methods for evaluation of acute toxicity of compounds against adherent cells. The tested compound is added into the medium with a defined number of trypsinised cells and after certain time the number of attached cells is counted. Human diploid fibroblasts BJ (passage 19) and standard cultivation medium (DMEM with 5 g/l glucose, 2 mM glutamin, 100 U/ml penicillin, 100 μg/ml streptomycin and 10% fetal calf serum) were used. The attached cells were counted after 6 hours. The experiment was done in three repetitions. […] Thus the compound doesn't show acute toxicity against fibroblasts.

[2] = tested on: Human diploid fibroblasts BJ; test: Viability of human diploid fibroblasts by MTT assay; format: cell-based; conditions: 0-25 μM, 72 hours, BJ passage 19
Method: MTT is a standard colorimetric assay for measurement of proliferation and survival of the cells. Yellow MTT is reduced into violet formazan in metabolically active cells. The amount of the resulting formazan is measured by spectrophotometry. Human diploid fibroblasts BJ (passage 19) were seeded in 96-well plate (5.000 cells per well). After 6 hours, the cultivation medium (DMEM containing 5 g/l glucose, 2 mM glutamine, 100 U/ml penicillin, 100 μg/ml streptomycin and 10% fetal calf serum) was removed and fresh medium containing a test compound in concentrations 0-25 μM was added. Each concentration was tested in 5 replicates. MTT was added to the cells after 72 hours into final concentration of 0.5 mg/ml. Incubation time was 3 hours.

[3] = tested on: Human diploid fibroblasts SNF25; test: In vitro toxicity by evaluation of growth curve; format: cell-based; conditions: 0-12.5 μM, 12 days, SNF25 passage 27
Method: Human diploid fibroblasts SNF25 (passage 27) were seeded in 24-well plate (10.000 cells/well). The cultivation medium (DMEM containing 5 g/l glucose, 2 mM glutamin, 100 U/ml penicillin, 100 μg/ml streptomycin and 10% fetal calf serum) was removed and replaced with the cultivation medium containing the tested compound in concentration range of 0-12.5 μM. Each concentration was tested in triplicate. The cell number was counted during next 12 days.

[4] = tested on: Senescent human diploid fibroblasts SNF25; test: Effect on senescent human diploid fibroblasts (cell number); format: cell-based; conditions: 0-12.5 μM, days 7 and 14, SNF25 passage 53
Method: Senescent human diploid fibroblasts SNF25 (passage 53) were seeded in 24-well plate (10.000 cells/well). The cultivation medium (DMEM containing 5 g/l glucose, 2 mM glutamin, 100 U/ml penicillin, […] streptomycin and 10% fetal calf serum) was removed and replaced with the cultivation medium containing test compound in concentration range of 0-12.5 μM. Each concentration was tested in triplicate. The cell numbers were determined on days 7 and 14.

[5] = tested on: Transgenic 35S:AtCKX1 Arabidopsis seedlings; test: Foliar spray of CKX overproducing Arabidopsis seedlings grown in soil, phenotype complementation; format: in vivo; conditions: 10 μM sprayed every second day for 1 month
Method: (§1) Transgenic 35S:AtCKX1 Arabidopsis and 35S:AtCKX1 and 35S:AtCKX2 tobacco seedlings grown in soil in the greenhouse were systematically treated with 10 μM of compound 12. Areal parts of the wild type and transgenic seedlings were sprayed every second day for 1 month with aqueous solution of compound 12 containing 0.01% Silwet L-77 wetting agent.

[6] = tested on: 35S:AtCKX1 and 35S:AtCKX2 tobacco seedlings; test: Foliar spray of CKX overproducing tobacco seedlings grown in soil, phenotype complementation and root system; format: in vivo
Method: as §1

[7] = tested on: CKX1 overproducing Arabidopsis seedlings; test: CKX1 overproducing Arabidopsis seedlings grown in vitro on MS medium, phenotype reversion; format: in vivo; conditions: in vitro on MS medium containing 0.1 μM compound
[8] = tested on: WT Arabidopsis plants; test: Prolonged treatment of WT Arabidopsis plants, flowering; format: in vivo
Method: as §1
Flowers had aborted anthers and were sterile.

[9] = tested on: Human diploid fibroblasts HCA; test: Anti-aging activity: senescence-associated beta-galactosidase in human fibroblasts; format: cell-based
Method: In this example, effects of the compounds of this invention on the activity of a senescence biomarker senescence-associated β-galactosidase was studied. Human diploid fibroblasts HCA of various passage levels were used for this purpose. The tested compounds were added to the medium at each passage. After the incubation period, cells were washed with PBS and fixed with 2% formaldehyde and 0.2% glutaraldehyde in PBS. After another wash with PBS, they were incubated with the staining solution comprising potassium ferricyanide (5 mM), potassium ferrocyanide (5 mM), MgCl2 (2 mM), X-gal (5-bromo-4-chloro-3-indolyl-β-D-galactopyranoside) (1 mg/ml), in citric/phosphate buffer (pH 6.0) at 37° C. (without CO2) for at least 1 hour. Following the incubation period, the numbers of cells expressing senescence-associated β-galactosidase (blue cells) were counted using light microscope.

[10] = tested on: Rat C6 glioma (ATCC No. CCL107); test: Anti-inflammatory activity: isoproterenol-induced cAMP synthesis (ELISA); format: cell-based; conditions: cAMP after 30 min, induced by (−)-isoproterenol
Method: Anti-inflammatory activity of several of the substituted 6-anilinopurine derivatives of this invention was determined; kinetin was also evaluated as a control. Rat C6 glioma (ATCC No. CCL107) was cultivated in monolayer in serum-free chemically defined medium containing Ham's F10/minimal essential medium (1:1 v/v), 2 mM L-glutamine, 1% (v/v) minimal essential medium vitamins (100×), 1% (v/v) minimal essential medium nonessential amino acids (100×), 100 U/ml penicillin, […], and 30 nM sodium selenite. Incubation was performed at 37° C. in a 100% humidified atmosphere. The assays were performed in the logarithmic growth phase at a density of 2.5×10^5 cells/cm^2. Intracellular cAMP synthesis was induced by addition of 5 mM (−)-isoproterenol; various amounts of test compounds were added at the same time as the (−)-isoproterenol. After 30 min incubation, the cellular amount of cAMP was determined using ELISA (cAMP-enzyme immunoassay kit from Amersham). The I50 values were determined from the dose-response curve in duplicate.

Compound: Clc1nc(Nc2ccccc2)c2[nH]cnc2n1 [Compound 1, 2-Chloro-6-anilinopurine]
- Attachment percentage [1]: not significantly influenced
- viability of cells (MTT) [2]: not toxic for human diploid fibroblasts
- growth curve (cell number) [3]: not toxic against human diploid fibroblasts
- cell number (cell survival) [4]: does not exert significant negative effect on cell survival

Compound: COc1cccc(Nc2nc(Cl)nc3nc[nH]c23)c1 [Compound 12, 2-Chloro-6-(3-methoxyanilino)purine]
- complementation of wild-type phenotype (release from growth inhibition) [5]: restauration of wild type phenotype
- complementation of wild-type phenotype (release from growth inhibition) ([6]; 35S:AtCKX1 and 35S:AtCKX2 tobacco, 10 μM sprayed every second day for 1 month): restauration of wild type phenotype
- effect of foliar application on root system ([6]; transgenic tobaccos, foliar application, 10 μM): enhancement of the root system
- reversion of WT phenotype [7]: reversion of WT phenotype appeared
- effect on flowering [8]: altered development of flowers and inhibition of fertilisation

Compound: c1coc(CNc2ncnc3nc[nH]c23)c1 [Kinetin, 6-furfurylaminopurine, reference compound]
- Senescent Cells (%) HCA passage 25 ([9]; passage 25, cells expressing senescence-associated beta-galactosidase): 3%
- Senescent Cells (%) HCA passage 50 ([9]; passage 50, cells expressing senescence-associated beta-galactosidase): 5%
- Senescent Cells (%) HCA passage 80 ([9]; passage 80, cells expressing senescence-associated beta-galactosidase): 38%
- Effect (anti-inflammatory activity) [10]: inactive; also recorded: Not active
